Results on 22 molecules are retold here after patent publication US20250082633A1, “COMPOUNDS AND METHODS FOR MODULATING SPLICING” (REMIX THERAPEUTICS INC., priority 2021, published 2025).

Assay [1] has as its system HTT mRNA. The experiment in a line: RT-qPCR splicing assay, HTT canonical (CJ) and alternative (AJ) junction mRNA. As to conditions: Homo sapiens; for IC50: read-out: HTT CJ IC50; for AC50: read-out: HTT AJ AC50. It is filed as cell-based. The method in brief: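 Splice-junction mRNAs (CJ, AJ) measured by TaqMan one-step RT-qPCR on cell lysates, using PPIA as reference for adherent A673 and GAPDH or GUSB for K562. Cells exposed for 24 h to 11 threefold concentrations up to 10 uM final, with DMSO at or below 0.25%.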
On the technique in general: Quantitative PCR measures a nucleic acid by following its amplification.

For assay [2], the system named is HiBiT-tagged HTT protein in K562 cells. The experiment in a line: HiBit protein abundance assay, HTT. It is filed as cell-based, human. To be noted: K562 HiBiT-modified cells, 24 hours, luminescence. The procedure: Compounds described herein were used to screen for effects on quantitative protein abundance using a HiBit assay system (Promega). Quantitative protein abundance was determined by measuring the protein levels of HiBit-tagged protein targets expressed in cell culture via luminescence using the Nano-Glo HiBiT Lytic Detection System, which uses a split complementation assay format to reconstitute NanoBiT enzyme to generate a luminescent signal. A protein abundance assay was developed such that endogenous protein targets could be modified with the HiBiT peptide tag and their abundance could be assessed after compound treatment. Briefly, K562 cell lines containing a HiBiT-modification were treated with various compounds described herein (e.g., compounds of Formulas (I), (II), or (III)). After treatment for 24 hours, the protein abundance of a specific target was determined by measuring luminescence. • Promega Nano-Glo HiBiT Lytic Detection System (cat #N3030) • Corning 384-well TC-treated microplates (cat #3570) • Synthego Engineered Cells Knock-In Clones [table] Cells were maintained in IMDM with 10% FBS. Before the assay, cells were diluted with phenolphthalein-free growth media (IMDM+1% FBS media) and were seeded in a 384-well plate at a density of 10000 cells/well (for each cell line listed in Table 6). Each compound was prepared as a 10-point 3-fold serial dilution in DMSO with the top dose at a final concentration of 10 μM in the well. Unmodified K562 cells were added at the previously specified density with DMSO to serve as an assay baseline and positive control (PC) and DMSO only with the respective modified cell lines was added to the negative control (NC) columns. Final DMSO concentration was kept at or below 0.25%. Treated cell plates were placed in an incubator at 37° C. with 5% CO2 for 24 hours. After 24 hours, 25 μL of Complete HiBit Lytic reagent was added to each well at room temperature (e.g. one plate requiring 10 mL Lytic Buffer, 100 μL LgBiT Protein, 200 μL Lytic Substrate), shaken for 5 minutes at 600 RPM, then left to sit for 10 minutes for signal to stabilize before reading on a Spark Cyto plate reader (Tecan) with a 500 ms measurement time. To determine compound effects on protein abundance of each target in Table 6, the percent response for each respective cell line was calculated at each compound concentration as follows: For the normalized response at each concentration, a four-parameter logistical regression was fit to the data and the response was interpolated at the 50% value to determine a concentration for protein abundance at 50% (IC50) the untreated control.
For orientation: With HiBiT, luminescence reflects the tagged protein that the partner subunit can reach.

Setting [3] is: decrease in CJ mRNA levels, larger panel of genes, Table 3.
Where [4] appears, read: decrease in canonical junction mRNA, A673 or K562 cells, 24 hours treatment, Table 2.
[5] abbreviates: increase in alternative junction mRNA, A673 or K562 cells, 24 hours treatment, Table 2.

Read-outs that look alike come from different tables or passages of the source. Bounds are passed on as bounds.

Take `Cn1cc2cc(-c3ccc4nn(C5CCNCC5)cc4c3)cc(F)c2n1` [Compound 105, 7-fluoro-2-methyl-5-[2-(4-piperidyl)indazol-5-yl]indazole]: the IC50 in assay [1] (setting [3]), in assay [1] (setting [4]) and in assay [2] was 100 to 1000 nM in each case. In addition, the AC50 in assay [1] (setting [5]) was 100 to 1000 nM.
As to `Cn1cc2cc(-c3cc(F)c4nn(C5CCNCC5)cc4c3)cc(C#N)c2n1` [Compound 130, 5-[7-fluoro-2-(4-piperidyl)indazol-5-yl]-2-methyl-indazole-7-carbonitrile], the concentration for half-maximal inhibition (IC50) in assay [1] (setting [3]), in assay [1] (setting [4]) and in assay [2] was below 100 nM each time. Also, the AC50 in assay [1] (setting [5]) is below 100 nM.
Take `Cn1cc2cc(-c3ccc4nn(C5CCNCC5)cc4n3)c(O)c(F)c2n1` [Compound 107, 7-fluoro-2-methyl-5-[2-(4-piperidyl)pyrazolo [4,3-b]pyridin-5-yl]indazol-6-ol]: the half-maximal inhibitory concentration (IC50) in assay [1] (setting [3]), in assay [1] (setting [4]) and in assay [2] was 100 to 1000 nM each time. In addition, the AC50 in assay [1] (setting [5]) fell in the range of 100 to 1000 nM.
As to `Cc1cn2nc(-c3cc(F)c4nn(C5CCN(CC6CC6)C6(CC6)C5)cc4c3)cc(C)c2n1` (stereo not shown) [Compound 183, 6-[2-[4-(cyclopropylmethyl)-4-azaspiro[2.5]octan-7-yl]-7-fluoro-indazol-5-yl]-2,8-dimethyl-imidazo[1,2-b]pyridazine], the IC50 in assay [1] (setting [3]), in assay [1] (setting [4]) and in assay [2] was below 100 nM each time. In addition, the concentration at half-maximal activity (AC50) in assay [1] (setting [5]) is below 100 nM.
On to `Cn1cc2cc(-c3ccc4cn(C5CCNCC5)nc4c3)cc(F)c2n1` [Compound 148, 7-fluoro-2-methyl-5-[2-(4-piperidyl)indazol-6-yl]indazole], for which the half-inhibitory concentration (IC50) in assay [1] (setting [3]), in assay [1] (setting [4]) and in assay [2] was 1000 to 10000 nM in each case. For the same molecule, in assay [1] (setting [5]), the half-maximal activity concentration (AC50) was above 10000 nM.
Take `Cc1cn2nc(-c3cc(O)c4nn(C5CCNCC5)cc4c3)cc(C)c2n1` [Compound 156, 5-(2,8-dimethylimidazo[1,2-b]pyridazin-6-yl)-2-(piperidin-4-yl)-2H-indazol-7-ol]: the 50% inhibitory concentration (IC50) in assay [1] (setting [3]), in assay [1] (setting [4]) and in assay [2] was 100 to 1000 nM in each case. Also, the AC50 in assay [1] (setting [5]) was in the range of 100 to 1000 nM.
As to `Cc1cn2nc(-c3cc(F)c4nn(C5CCN(CC6CC6)CC5)cc4c3)cc(C)c2n1` [Compound 149, 6-[2-[1-(cyclopropylmethyl)-4-piperidyl]-7-fluoro-indazol-5-yl]-2,8-dimethyl-imidazo[1,2-b]pyridazine], the half-inhibitory concentration (IC50) in assay [1] (setting [3]), in assay [1] (setting [4]) and in assay [2] was below 100 nM throughout. In addition, in assay [1] (setting [5]), the AC50 was below 100 nM.
On to `Cc1cn2nc(-n3cc4cc(C5CCNCC5)cc(F)c4n3)cc(C)c2n1` [Compound 120, 6-[7-fluoro-5-(4-piperidyl)indazol-2-yl]-2,8-dimethyl-imidazo[1,2-b]pyridazine], for which the half-inhibitory concentration (IC50) in assay [1] (setting [3]), in assay [1] (setting [4]) and in assay [2] was 1000 to 10000 nM throughout. Also, the half-maximal activity concentration (AC50) in assay [1] (setting [5]) was above 10000 nM.
On to `Cc1ccc2nc(-c3cc(F)c4nn(C5CCNCC5)cc4c3)ccc2n1` [Compound 157, 2-[7-fluoro-2-(4-piperidyl)indazol-5-yl]-6-methyl-1,5-naphthyridine], for which the values for the 50% inhibitory concentration (IC50) in assay [1] (setting [3]), in assay [1] (setting [4]) and in assay [2] were above 10000 nM, above 10000 nM and 1000 to 10000 nM, respectively. For the same molecule, the AC50 in assay [1] (setting [5]) was above 10000 nM.
As for `Cc1cn2nc(-c3cc(F)c4nn(C5CCNC6(CC6)C5)cc4c3)cc(C)c2n1` (stereo not shown) [Compound 171, 6-[2-(4-azaspiro[2.5]octan-7-yl)-7-fluoro-indazol-5-yl]-2,8-dimethyl-imidazo[1,2-b]pyridazine], the half-inhibitory concentration (IC50) in assay [1] (setting [3]), in assay [1] (setting [4]) and in assay [2] was below 100 nM in each case. Besides, the AC50 in assay [1] (setting [5]) is below 100 nM.
`Fc1cc(-c2ccc3cnccc3c2)cc2cn(C3CCNCC3)nc12` [Compound 161, 6-[7-fluoro-2-(4-piperidyl)indazol-5-yl]isoquinoline]: the 50% inhibitory concentration (IC50) in assay [1] (setting [3]), in assay [1] (setting [4]) and in assay [2] was 100 to 1000 nM in each case. Also, the AC50 in assay [1] (setting [5]) was 1000 to 10000 nM.
In the case of `Cc1nc2ccc(-c3cc(F)c4nn(C5CCNCC5)cc4c3)cc2o1` [Compound 135, 6-[7-fluoro-2-(4-piperidyl)indazol-5-yl]-2-methyl-1,3-benzoxazole], the IC50 was 100 to 1000 nM in assay [1] (setting [3]), 100 to 1000 nM in assay [1] (setting [4]) and below 100 nM in assay [2]. For the same molecule, in assay [1] (setting [5]), the AC50 fell in the range of 100 to 1000 nM.
With `Fc1cc(-c2ccc3ncccc3c2)cc2cn(C3CCNCC3)nc12` [Compound 162, 6-[7-fluoro-2-(4-piperidyl)indazol-5-yl]quinoline], the IC50 was above 10000 nM in assay [1] (setting [3]), above 10000 nM in assay [1] (setting [4]) and 1000 to 10000 nM in assay [2]. Also, in assay [1] (setting [5]), the half-maximal activity concentration (AC50) was above 10000 nM.
As for `Cc1c(O)c(-c2ccc3nn(C4CCNCC4)cc3n2)cc2cn(C)nc12` [Compound 109, 2,7-dimethyl-5-[2-(4-piperidyl)pyrazolo[4,3-b]pyridin-5-yl]indazol-6-ol], the IC50 in assay [1] (setting [3]), in assay [1] (setting [4]) and in assay [2] was below 100 nM each time. Moreover, in assay [1] (setting [5]), the AC50 was in the range of 100 to 1000 nM.
On to `Cc1cn2nc(-c3cc(F)c4nn(C5CCNCC5F)cc4c3)cc(C)c2n1` (stereo not shown) [Compound 166, 6-[7-fluoro-2-(3-fluoro-4-piperidyl)indazol-5-yl]-2,8-dimethyl-imidazo [1,2-b]pyridazine], for which the IC50 in assay [1] (setting [3]), in assay [1] (setting [4]) and in assay [2] was below 100 nM in each case. Further, in assay [1] (setting [5]), the concentration at half-maximal activity (AC50) was below 100 nM.
Regarding `Cc1nc2c(C)c(O)c(-c3cc(F)c4nn(C5CCNCC5)cc4c3)cc2o1` [Compound 123, 6-[7-fluoro-2-(4-piperidyl)indazol-5-yl]-2,4-dimethyl-1,3-benzoxazol-5-ol], the IC50 in assay [1] (setting [3]), in assay [1] (setting [4]) and in assay [2] was 100 to 1000 nM throughout. Further, the AC50 in assay [1] (setting [5]) lay in the range of 100 to 1000 nM.
As for `COc1cc(-c2cc3cn(C)nc3cc2O)nc2cn(C3CCNCC3)nc12` [Compound 140, 5-[7-methoxy-2-(4-piperidyl)pyrazolo[4,3-b]pyridin-5-yl]-2-methyl-indazol-6-ol], the half-maximal inhibitory concentration (IC50) in assay [1] (setting [3]), in assay [1] (setting [4]) and in assay [2] was 1000 to 10000 nM each time. Also, the AC50 in assay [1] (setting [5]) is 1000 to 10000 nM.
On to `Cn1cc2cc(-c3cc(Cl)c4nn(C5CCNCC5)cc4n3)c(O)cc2n1` [Compound 141], for which the IC50 in assay [1] (setting [3]), in assay [1] (setting [4]) and in assay [2] was above 10000 nM throughout. Besides, the concentration at half-maximal activity (AC50) in assay [1] (setting [5]) was above 10000 nM.
Turning to `Cc1cc(-c2cc(F)c3nn(C4CCNCC4)cc3c2)cc2cn(C)nc12` [Compound 133, 5-(2,7-dimethylindazol-5-yl)-7-fluoro-2-(4-piperidyl)indazole], the 50% inhibitory concentration (IC50) in assay [1] (setting [3]), in assay [1] (setting [4]) and in assay [2] was below 100 nM each time. The AC50 in assay [1] (setting [5]) was below 100 nM.
As to `COc1cc(-c2cc(C)c3nc(C)cn3n2)cc2cn(C3CCNCC3)nc12` [Compound 155, 6-(7-methoxy-2-(piperidin-4-yl)-2H-indazol-5-yl)-2,8-dimethylimidazo [1,2-b]pyridazine], the concentration for half-maximal inhibition (IC50) in assay [1] (setting [3]), in assay [1] (setting [4]) and in assay [2] was below 100 nM throughout. Also, the AC50 in assay [1] (setting [5]) was 100 to 1000 nM.
For `Cc1cn2nc(-c3cc(F)c4nn(C5CCN(C6CCC6)CC5)cc4c3)cc(C)c2n1` [Compound 151, 6-[2-(1-cyclobutyl-4-piperidyl)-7-fluoro-indazol-5-yl]-2,8-dimethyl-imidazo [1,2-b] pyridazine], the concentration at half-maximal activity (AC50) in assay [1] (24 h) was below 100 nM. Besides, the IC50 in assay [1] (24 h), in assay [1] and in assay [2] was below 100 nM each time.
`Cc1cn2cc(-c3cc(F)c4nn(C5CCNCC5)cc4c3)nc(C)c2n1` [Compound 132, 6-[7-fluoro-2-(4-piperidyl)indazol-5-yl]-2,8-dimethyl-imidazo[1,2-a]pyrazine]: the 50% inhibitory concentration (IC50) in assay [1] (setting [3]), in assay [1] (setting [4]) and in assay [2] was 100 to 1000 nM throughout. In addition, the AC50 in assay [1] (setting [5]) lay within 100 to 1000 nM.

The term IC50 denotes the midpoint of a concentration-inhibition curve. A word on the AC50: it is the concentration at which the activity in the assay is half-maximal.
